pIC50: −log10 of the molar value.
Key:
[1] = system: MRC5; experiment: Cytotoxicity against human MRC5 cells by MTT assay; type: cell-based
[2] = Selectivity index, ratio of IC50 for human MRC5 cells to IC50 for chloroquine-resistant Plasmodium falciparum K1; type: toxicity, cell-based; conditions: read-out: Ratio IC50
[3] = Selectivity index, ratio of IC50 for human MRC5 cells to IC50 for […]; type: toxicity, cell-based; conditions: read-out: Ratio IC50
[4] = Selectivity index, ratio of IC50 for human MRC5 cells to IC50 for chloroquine/mefloquine-resistant Plasmodium falciparum SKF58; type: toxicity, cell-based; conditions: read-out: Ratio IC50
[5] = Selectivity index, ratio of IC50 for human MRC5 cells to IC50 for chloroquine/mefloquine-resistant Plasmodium falciparum SRIV35; type: toxicity, cell-based; conditions: read-out: Ratio IC50
[6] = system: HepG2; experiment: Cytotoxicity against human HepG2 cells by MTT assay; type: functional, cell-based
[7] = Cytotoxicity against human HuCCa1 cells by MTT assay; type: functional, cell-based; conditions: HuCC-A1
[8] = Cytotoxicity against human MOLT3 cells by XTT assay; type: functional, cell-based; conditions: MOLT-3
[9] = system: A549; experiment: Cytotoxicity against human A549 cells by MTT assay; type: functional, cell-based
[10] = Selectivity index, ratio of IC50 for human MRC5 cells to IC50 for human HuCCa1 cells; type: functional
[11] = system: Plasmodium falciparum; experiment: microbe, parasite or virus in culture; conditions: K1
Description: Antiplasmodial activity against chloroquine-resistant Plasmodium falciparum K1

[12] = system: Plasmodium falciparum; experiment: microbe, parasite or virus in culture; conditions: 3D7
Description: Antiplasmodial activity against chloroquine-sensitive Plasmodium falciparum 3D7

[13] = system: Plasmodium falciparum; experiment: microbe, parasite or virus in culture; conditions: SKF58
[14] = system: Plasmodium falciparum; experiment: microbe, parasite or virus in culture; conditions: SRIV35
[15] = system: MRC5; experiment: Cytotoxicity against human MRC5 cells at 131866 nM by MTT assay relative to control; type: cell-based; conditions: mrc5, 131.866 µM
[16] = system: MRC5; experiment: Cytotoxicity against human MRC5 cells at 72014 nM by MTT assay relative to control; type: cell-based; conditions: mrc5, 72.014 µM
[17] = system: MRC5; experiment: Cytotoxicity against human MRC5 cells at 137509 nM by MTT assay relative to control; type: cell-based; conditions: mrc5, 137.509 µM
[18] = system: MRC5; experiment: Cytotoxicity against human MRC5 cells at 144667 nM by MTT assay relative to control; type: cell-based; conditions: mrc5, 144.667 µM
[19] = system: MRC5; experiment: Cytotoxicity against human MRC5 cells at […] uM by MTT assay relative to control; type: cell-based; conditions: mrc5, 91.99 µM

| Structure (SMILES) | pIC50 [1] | selectivity ratio [2] | selectivity ratio [3] | selectivity ratio [4] | selectivity ratio [5] | pIC50 [6] | pIC50 [7] | pIC50 [8] | pIC50 [9] | Ratio IC50 [10] | pIC50 [11] | pIC50 [12] | pIC50 [13] | pIC50 [14] | Activity [15] [%] | Activity [16] [%] | Activity [17] [%] | Activity [18] [%] | Activity [19] [%] |
| --- | --- | --- | --- | --- | --- | --- | --- | --- | --- | --- | --- | --- | --- | --- | --- | --- | --- | --- | --- |
| Cn1cc2c3cc(Br)ccc3nc-2c2cc(F)ccc21 | 3.91 | 650 | 1020 | 921 | 577 | 5.44 | 4.82 | 6.06 | 4.88 | 8.14 | 6.73 | 6.92 | 6.88 | 6.68 | – | – | – | – | – |
| Cn1cc2c3cc(Br)ccc3nc-2c2cc(C(F)(F)F)ccc21 | < 3.88 | > 96.4 | > 228 | > 108 | > 142 | 4.12 | 5.13 | 4.46 | 3.98 | >17.72 | 5.86 | 6.24 | 5.91 | 6.03 | 35.85 | – | – | – | – |
| Cn1cc2c3cc(Br)ccc3nc-2c2ccc(F)cc21 | 4.58 | 425 | 693 | 284 | 317 | 5.13 | 4.99 | 5.90 | 5.10 | 2.58 | 7.21 | 7.42 | 7.03 | 7.08 | – | – | – | – | – |
| Cn1cc2c3cc(Br)ccc3nc-2c2cccc(F)c21 | 4.81 | 51.8 | 86.1 | 63 | 65.2 | 5.49 | 5.35 | 5.96 | 5.21 | 3.42 | 6.53 | 6.75 | 6.61 | 6.63 | – | – | – | – | – |
| Cn1cc2c3ccc4ccccc4c3nc-2c2cc(Cl)ccc21 | 5.58 | 24.1 | 33.6 | 34.3 | 36.3 | 6.12 | 5.81 | 5.81 | 5.92 | 2.96 | 6.72 | 6.87 | 6.87 | 6.90 | – | – | – | – | – |
| Cn1cc2c3cc(Br)ccc3nc-2c2cc(F)cc(Cl)c21 | 3.97 | – | – | – | – | 5.46 | 5.10 | – | 4.45 | 13.5 | < 5.70 | < 5.70 | < 5.70 | < 5.70 | – | – | – | – | – |
| C[C@H]1[C@H](OC(=O)CCC(=O)O)O[C@@H]2O[C@@]3(C)CC[C@H]4[C@H](C)CC[C@@H]1[C@@]24OO3 [ARTESUNATE] | – | – | – | – | – | – | – | – | – | – | 8.46 | 8.38 | 8.00 | 8.39 | – | – | – | – | – |
| Cn1cc2c3cc(Br)ccc3nc-2c2ccc(F)c(F)c21 | < 4.14 | > 53.2 | > 248 | > 7.3 | – | – | 4.37 | 4.76 | 4.60 | >1.68 | 5.87 | 6.54 | 5.01 | < 5.70 | – | 32.6 | – | – | – |
| Cn1cc2c3cc(Br)ccc3nc-2c2cc(OC(F)(F)F)ccc21 | 4.06 | 1280 | 1500 | 799 | 804 | 5.09 | 5.15 | 5.59 | 5.07 | 12.36 | 7.17 | 7.24 | 6.96 | 6.97 | – | – | – | – | – |
| Cc1cccc2c3nc4ccccc4c-3cn(C)c12 | 4.40 | 22.2 | 24.6 | 24.6 | 24.6 | 5.59 | 4.78 | 5.53 | 4.95 | 2.33 | 5.76 | 5.80 | 5.80 | 5.80 | – | – | – | – | – |
| COc1ccc2nc3c4cc(Cl)ccc4n(C)cc-3c2c1 | 5.51 | 7.52 | 13.5 | 13.8 | 13.7 | 5.66 | 4.98 | 5.54 | 5.16 | 0.28 | 6.42 | 6.67 | 6.68 | 6.68 | – | – | – | – | – |
| Cn1cc2c3ccccc3nc-2c2cccc(Cl)c21 | 4.90 | – | – | – | – | 5.58 | 4.68 | 5.90 | 5.07 | 0.59 | < 5.70 | < 5.70 | < 5.70 | < 5.70 | – | – | – | – | – |
| Cn1cc2c3cc(Br)ccc3nc-2c2cc(Cl)cc(F)c21 | < 3.86 | > 101 | > 181 | > 97.9 | > 98.2 | 5.06 | 4.94 | 4.25 | – | >12.07 | 5.87 | 6.12 | 5.85 | 5.85 | – | – | 34 | – | – |
| COc1cc([C@@H]2c3cc4c(cc3[C@@H](O[C@@H]3O[C@@H]5CO[C@@H](C)O[C@H]5[C@H](O)[C@H]3O)[C@H]3COC(=O)[C@H]23)OCO4)cc(OC)c1O [ETOPOSIDE] | – | – | – | – | – | 4.39 | – | 6.96 | – | – | – | – | – | – | – | – | – | – | – |
| Cn1cc2c3ccccc3nc-2c2cc(Cl)ccc21 | 4.98 | 32.5 | 47.1 | 45.7 | 48 | 6.19 | 5.19 | 6.28 | 5.82 | 1.62 | 6.49 | 6.66 | 6.64 | 6.66 | – | – | – | – | – |
| OC(c1cc(C(F)(F)F)nc2c(C(F)(F)F)cccc12)C1CCCCN1 (stereo not drawn) [MEFLOQUINE] | – | – | – | – | – | – | – | – | – | – | – | – | – | 7.19 | – | – | – | – | – |
| Cn1cc2c3cc(Br)ccc3nc-2c2cc(Cl)ccc21 | < 3.84 | > 623 | > 796 | > 893 | > 845 | 5.32 | 4.51 | 6.12 | 5.15 | >4.7 | 6.63 | 6.74 | 6.79 | 6.77 | – | – | – | 40.45 | – |
| C=C[C@H]1CN2CC[C@H]1C[C@H]2[C@H](O)c1ccnc2ccc(OC)cc12 [QUININE] | – | – | – | – | – | – | – | – | – | – | 6.95 | 7.10 | 6.70 | 6.37 | – | – | – | – | – |
| Cn1cc2c3cc(F)ccc3nc-2c2cc(Cl)ccc21 | 5.39 | 14.1 | 24.4 | 22.8 | 22.9 | 6.09 | 5.02 | 6.13 | 5.10 | 0.43 | 6.54 | 6.78 | 6.75 | 6.75 | – | – | – | – | – |
| Cn1cc2c3cc(Cl)ccc3nc-2c2cc(Cl)ccc21 | 4.60 | 110 | 146 | 194 | 162 | 5.10 | 4.88 | 6.03 | 4.52 | 1.9 | 6.64 | 6.76 | 6.89 | 6.81 | – | – | – | – | – |
| COc1cccc2c1C(=O)c1c(O)c3c(c(O)c1C2=O)C[C@@](O)(C(=O)CO)C[C@@H]3O[C@H]1C[C@H](N)[C@H](O)[C@H](C)O1 [DOXORUBICIN] | < 4.04 | – | – | – | – | 6.40 | 5.62 | – | – | – | – | – | – | – | – | – | – | – | 37.13 |
| Cc1cc(Br)cc2c3cn(C)c4ccc(Cl)cc4c-3nc12 | 5.27 | 37.8 | 57.7 | 59.2 | 63.2 | 5.86 | 5.21 | 5.93 | 5.63 | 0.89 | 6.84 | 7.02 | 7.03 | 7.06 | – | – | – | – | – |
| Cn1cc2c3cc(Br)ccc3nc-2c2cccc(Cl)c21 | 5.50 | – | – | – | – | 5.59 | 5.31 | 6.11 | 5.26 | 0.64 | < 5.70 | < 5.70 | < 5.70 | < 5.70 | – | – | – | – | – |
| Cn1cc2c3ccccc3nc-2c2ccccc21 [ISOCRYPTOLEPINE] | 5.08 | 10.7 | 14.3 | 20.4 | 18 | 6.14 | 5.74 | 6.14 | 5.92 | 4.62 | – | 6.23 | 6.39 | 6.33 | – | – | – | – | – |
